33 compounds from PubChem BioAssay AID489003 (NMMLSC, 2010) can be followed below.

The structures appear in SMILES notation. The source made the active and inactive calls.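 How the source made its calls: active means compounds whose weighted score, built from EC50 under 10 micromolar and fitted span over a set limit, tops 52; inactive means the rest.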

Chain of Broad substrate specificity ATP-binding cassette transporter ABCG2 (Homo sapiens) (Q9UNQ0 whole entry, looked up): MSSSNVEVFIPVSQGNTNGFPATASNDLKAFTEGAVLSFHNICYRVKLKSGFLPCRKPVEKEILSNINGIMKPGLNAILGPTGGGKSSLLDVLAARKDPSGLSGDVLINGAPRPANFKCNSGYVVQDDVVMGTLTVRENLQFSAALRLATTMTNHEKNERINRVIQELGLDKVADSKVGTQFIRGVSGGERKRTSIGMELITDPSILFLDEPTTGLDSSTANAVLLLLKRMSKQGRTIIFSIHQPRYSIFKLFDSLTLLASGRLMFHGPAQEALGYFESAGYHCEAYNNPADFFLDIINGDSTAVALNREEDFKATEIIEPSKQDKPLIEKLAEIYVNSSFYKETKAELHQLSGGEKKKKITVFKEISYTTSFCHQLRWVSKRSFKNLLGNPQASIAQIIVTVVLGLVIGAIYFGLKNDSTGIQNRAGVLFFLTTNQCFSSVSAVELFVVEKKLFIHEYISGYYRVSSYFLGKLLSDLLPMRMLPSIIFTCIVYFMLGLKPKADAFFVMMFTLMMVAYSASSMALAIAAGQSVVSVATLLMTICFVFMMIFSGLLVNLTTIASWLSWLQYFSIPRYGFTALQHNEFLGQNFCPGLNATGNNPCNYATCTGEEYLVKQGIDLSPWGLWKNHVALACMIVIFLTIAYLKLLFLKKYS

The assay concerns the target Broad substrate specificity ATP-binding cassette transporter ABCG2 (Homo sapiens) (UniProt Q9UNQ0). Put plainly: blockade of ABCG2-mediated dye efflux – Ig-MXP3 cells, JC-1 substrate, flow cytometry, dose response (AID 489003). The conditions noted are these: JC-1 efflux. In general terms: In flow cytometry, cells or beads pass a laser one at a time.
A word on the EC50: it is the concentration giving half of the maximal effect. Turning to `CC(=O)N1CCN(c2c(C)c(C)nc3cc(-c4ccc(F)cc4)nn23)CC1`, the EC50 entry was “inactive”.
The same measure for `O=C(c1ccoc1)N1CCN(c2cc(-c3ccco3)nc3cc(-c4ccc(Cl)cc4)nn23)CC1`: 2720 nM; for `Cc1nn2c(N3CCN(C(=O)c4ccco4)CC3)cc(C(C)(C)C)nc2c1-c1ccc(Cl)cc1`: 1920 nM.
The same measure for `c1ccc(-c2cc3nc(-c4ccco4)cc(N4CCNCC4)n3n2)cc1`: 6980 nM.
On to `Cc1nc2cc(-c3cccc(F)c3)nn2c(N2CCN(C(=O)c3ccco3)CC2)c1C`, for which the EC50 was 1430 nM.
The same measure for `COc1ccc(-c2[nH]nc3nc(N4CCN(C(=O)c5ccoc5)CC4)cc(C(F)(F)F)c23)cc1`: 8440 nM; for `COc1cc(OC)cc(-c2cc3nc(C)c(C)c(N4CCN(C(=O)c5ccoc5)CC4)n3n2)c1`: 664 nM.
With `O=C(c1ccco1)N1CCN(c2cc(-c3ccccc3)nc3ncnn23)CC1` the figure was 3550 nM.
As to `CC(=O)N1CCN(c2cc(-c3ccccc3)nc3cc(-c4ccccc4)nn23)CC1`, the EC50 is 2360 nM.
The same measure for `COc1cccc(-c2cc3nc(C)c(C)c(N4CCN(C(=O)c5ccco5)CC4)n3n2)c1`: 7100 nM; for `COc1ccc(-c2cc(N3CCN(C(=O)c4ccoc4)CC3)n3nc(-c4ccccc4)cc3n2)cc1`: 3640 nM.
With `Cc1coc(C)c1C(=O)N1CCN(c2cc(-c3ccco3)nc3cc(-c4ccccc4)nn23)CC1` the figure was 3220 nM.
With `O=C(c1ccoc1)N1CCN(c2cc(-c3ccco3)nc3cc(-c4ccco4)nn23)CC1` the figure was 697 nM; with `COc1cccc(-c2cc3nc(-c4ccccc4)c(C)c(N4CCN(C(=O)c5ccoc5)CC4)n3n2)c1`, 1670 nM; with `O=C(Nc1ccccc1)C1CCN(c2cc(-c3ccco3)nc3cc(-c4ccccc4)nn23)CC1`, 6490 nM.
`O=C(c1ccoc1)N1CCN(c2cc(-c3cccc(F)c3)nc3cc(-c4ccccc4)nn23)CC1`: the concentration giving a half-maximal response (EC50) was 2110 nM.
The same measure for `Cc1cc(C(=O)N2CCN(c3cc(-c4ccco4)nc4cc(-c5ccccc5)nn34)CC2)c(C)o1`: 3810 nM.
With `O=C(OCc1ccccc1)N1CCN(c2cc(-c3ccco3)nc3cc(-c4ccccc4)nn23)CC1` the figure was 2730 nM.
The same measure for `COc1cccc(-c2cc3nc(-c4cccc(C#N)c4)cc(N4CCN(C(=O)c5ccoc5)CC4)n3n2)c1`: 2530 nM; for `O=C(c1coc2ccccc12)N1CCN(c2cc(-c3ccco3)nc3cc(-c4ccccc4)nn23)CC1`: 1460 nM; for `Cc1ccc(-c2cc3nc(-c4ccco4)cc(N4CCN(Cc5ccoc5)CC4)n3n2)cc1`: 1820 nM.
In the case of `Cc1c(-c2ccco2)nc2cc(-c3ccccc3)nn2c1N1CCN(C(=O)c2ccoc2)CC1`, the half-maximal effective concentration (EC50) was 2440 nM.
The same measure for `COc1cccc(-c2cc3nc(C)cc(N4CCN(C(=O)c5ccoc5)CC4)n3n2)c1`: 4570 nM; for `CC(C)(C)c1cc(N2CCN(C(=O)c3ccoc3)CC2)n2nc(-c3ccccc3)cc2n1`: “inactive”; for `COc1cccc(-c2cc3nc(C)c(C)c(N4CCN(Cc5ccco5)CC4)n3n2)c1`: 393 nM.
The same measure for `COc1ccccc1-c1cc(N2CCN(C(=O)c3ccoc3)CC2)n2nc(-c3ccccc3)cc2n1`: 1870 nM; for `COc1cccc(-c2cc(N3CCN(C(=O)c4ccoc4)CC3)n3nc(-c4ccccc4)cc3n2)c1`: 3330 nM; for `Cc1cccc(-c2cc3nc(-c4ccco4)cc(N4CCN(C(=O)c5ccoc5)CC4)n3n2)c1`: 9090 nM.
The same measure for `O=C(c1ccoc1)N1CCN(c2cc(-c3cccc(F)c3)nc3cc(-c4cccc(Cl)c4)nn23)CC1`: 2300 nM; for `c1ccc(CN2CCN(c3cc(-c4ccco4)nc4cc(-c5ccccc5)nn34)CC2)cc1`: 1680 nM; for `CC(=O)N1CCN(c2cc(-c3ccco3)nc3cc(-c4ccccc4)nn23)CC1`: “inactive”.
`O=C1CN(c2cc(-c3ccco3)nc3cc(-c4ccccc4)nn23)CCN1c1ccccc1`: the 50% effective concentration (EC50) is 1360 nM.
With `Cc1cc(N2CCN(C(=O)c3ccoc3)CC2)n2nc(-c3ccccc3)cc2n1` the figure was 7190 nM.
